Results taken from ChEMBL document CHEMBL4017474, “A calcineurin antifungal strategy with analogs of FK506” (Bioorg Med Chem Lett, 2017).
pIC50: −log10 of the molar value. Calls of active or inactive are those of the source. The calls are words filed in the database; no cut-off is given here.

How the values were obtained:
Vero 76 = assay: Cytotoxicity against African green monkey Vero 76 cells; format: cell-based; conditions: Chlorocebus sabaeus
[1] = Antagonist activity at Aspergillus fumigatus FKBP12 measured after 30 mins by fluorescein labelled SLF tracer based fluorescence polarization assay
PBMC [2] = assay: Reversal of FK506-induced inhibition of cell proliferation in concanavalin A stimulated human PBMC at 1 uM measured after 72 hrs by CellTiter-Glo assay relative to control; format: functional; set-up: scale not given: the % may be the effect or the level left
Jurkat = assay: Immunosuppressive activity in PMA/ionomycin stimulated human Jurkat T cells assessed as suppression of IL2 production pretreated for 15 to 30 mins followed by PMA/ionomycin addition measured after 18 to 20 hrs by ELISA; format: cell-based
[3] = target: T1, Peptidyl-prolyl cis-trans isomerase FKBP1A (Homo sapiens, UniProt P62942); assay: Antagonist activity at recombinant human N-terminal His6-tagged FKBP12 expressed in Escherichia coli assessed as inhibition of FK506 mediated FKBP12 binding to calcineurin using […] pretreated for 1 hr followed by substrate addition measured after 1 hr by biomol green dye based spectrophotometric method
T1 sequence (P62942 whole entry): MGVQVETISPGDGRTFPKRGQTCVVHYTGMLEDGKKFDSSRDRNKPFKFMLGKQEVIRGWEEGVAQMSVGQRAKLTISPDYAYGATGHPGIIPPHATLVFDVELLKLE

Aspergillus fumigatus [4] = assay: Antifungal activity against Aspergillus fumigatus assessed as spore germination at 12.5 ug/ml measured after 48 hrs in presence of FK506 by broth dilution method relative to control; format: functional
[5] = target: T1, Peptidyl-prolyl cis-trans isomerase FKBP1A; assay: Antagonist activity at human FKBP12 measured after 30 mins by fluorescein labelled SLF tracer based fluorescence polarization assay
Aspergillus fumigatus [6] = assay: Antifungal activity against Aspergillus fumigatus up to 25 ug/ml measured after 48 hrs by broth dilution method; format: functional
PBMC [7] = assay: Antiproliferative activity against concanavalin A stimulated human PBMC at 1 to 2 ug/ml measured after 72 hrs by CellTiter-Glo assay; format: cell-based
[8] = target: T1, Peptidyl-prolyl cis-trans isomerase FKBP1A; assay: Antagonist activity at recombinant human N-terminal His6-tagged FKBP12 expressed in Escherichia coli assessed as inhibition of FKBP12 binding to calcineurin at […] using […] pretreated for 1 hr followed by substrate addition measured after 1 hr by biomol green dye based spectrophotometric method
HepG2 = assay: Cytotoxicity against human HepG2 cells; format: cell-based
PBMC [9] = assay: Permeability across human PBMC at 1 uM; format: ADME, cell-based
[10] = Clearance in mouse at 3 mg/kg, iv; format: ADME, organism-based; conditions: in vivo
[11] = Tmax in mouse at 10 mg/kg, po; format: ADME, organism-based; conditions: in vivo
[12] = Cmax in mouse at 10 mg/kg, po; format: ADME, organism-based; set-up: dose 10 mg/kg, route oral; conditions: in vivo
Aspergillus fumigatus [13] = assay: Permeability across Aspergillus fumigatus at 12.5 ug/ml relative to human PBMC; format: ADME
[14] = AUClast in mouse at 10 mg/kg, po; format: ADME, organism-based; set-up: dose 10 mg/kg, time 0 - last, route oral; conditions: in vivo
[15] = AUClast in mouse at 3 mg/kg, iv; format: ADME, organism-based; set-up: dose 3 mg/kg, time 0 - last, route intravenous; conditions: in vivo
[16] = Terminal half-life in mouse at 3 mg/kg, iv; format: ADME, organism-based; conditions: in vivo, read-out: beta t1/2 (converted)
[17] = Volume of distribution at steady state in mouse at 3 mg/kg, iv; format: ADME, organism-based; conditions: in vivo, read-out: Vdss
PBMC [18] = assay: Reversal of FK506-induced inhibition of cell proliferation in concanavalin A stimulated human PBMC at 0.1 uM measured after 72 hrs by CellTiter-Glo assay; format: functional, cell-based
Aspergillus fumigatus [19] = assay: Antifungal activity against Aspergillus fumigatus assessed as spore germination at 6.25 to 25 ug/ml measured after 48 hrs in presence of FK506 by broth dilution method; format: functional

Row | Compound | pIC50 (Vero 76) | pIC50 [1] | Activity (PBMC [2]) | pIC50 (Jurkat) | pIC50 [3] | Activity (Aspergillus fumigatus [4]) | pIC50 [5] | Activity (Aspergillus fumigatus [6]) | Activity (PBMC [7]) | inhibition [8] | pIC50 (HepG2) | clearance [10] | AUC(0-t) [15] | half-life [16] | Vd [17] | further results
1 | CO[C@H]1C[C@@H](C)C/C(C)=C/[C@@H](CCCC(=O)N2CC(N3CCOCC3)C2)C(=O)C[C@H](O)[C@@H](C)[C@@H](/C(C)=C/[C@@H]2CC[C@@H](O)[C@H](OC)C2)OC(=O)[C@@H]2CCCCN2C(=O)C(=O)[C@]2(O)O[C@H]1[C@@H](OC)C[C@H]2C | < 4.00 | 7.89 | 49.3% | < 5.00 | 5.97 | 49.6% | 8.02 | inactive | Non-Toxic | inactive | < 4.00 | – | – | – | – | –
2 | CO[C@H]1C[C@@H](C)C/C(C)=C/[C@@H](CC(=O)N2CCN(C)CC2)C(=O)C[C@H](O)[C@@H](C)[C@@H](/C(C)=C/[C@@H]2CC[C@@H](O)[C@H](OC)C2)OC(=O)[C@@H]2CCCCN2C(=O)C(=O)[C@]2(O)O[C@H]1[C@@H](OC)C[C@H]2C | < 4.00 | 7.77 | 102.8% | < 5.00 | 5.96 | 43.1% | 7.90 | inactive | Non-Toxic | inactive | < 4.00 | – | – | – | – | permeability (PBMC [9]): 100%
3 | CO[C@H]1C[C@@H](C)C/C(C)=C/[C@@H](CC(=O)N2CCCC2)C(=O)C[C@H](O)[C@@H](C)[C@@H](/C(C)=C/[C@@H]2CC[C@@H](OC(=O)N3CC(O)C3)[C@H](OC)C2)OC(=O)[C@@H]2CCCCN2C(=O)C(=O)[C@]2(O)O[C@H]1[C@@H](OC)C[C@H]2C | < 4.00 | – | 63% | < 5.00 | – | 22% | 7.65 | inactive | Non-Toxic | inactive | < 4.00 | 16.1 mL/min/kg | 2780 ng·h/mL | 81.6 min | 1.35 L/kg | Tmax [11]: 30 min; Cmax [12]: 814 ng/mL; permeability (Aspergillus fumigatus [13]): 75%; AUC(0-t) [14]: 1860 ng·h/mL
4 | CO[C@H]1C[C@@H](C)C/C(C)=C/[C@@H](CC(=O)N2CCCC2)C(=O)C[C@H](O)[C@@H](C)[C@@H](/C(C)=C/[C@@H]2CC[C@@H](O)[C@H](OC)C2)OC(=O)[C@@H]2CCCCN2C(=O)C(=O)[C@]2(O)O[C@H]1[C@@H](OC)C[C@H]2C | < 4.00 | – | – | < 5.00 | – | 90.5% | 7.66 | inactive | Non-Toxic | inactive | < 4.00 | 22.8 mL/min/kg | 2140 ng·h/mL | 42.8 min | 1.01 L/kg | –
5 | CC[C@@H]1/C=C(\C)C[C@H](C)C[C@H](OC)[C@H]2O[C@@](O)(C(=O)C(=O)N3CCCC[C@H]3C(=O)O[C@H](/C(C)=C/[C@@H]3CC[C@@H](OC(=O)N4CCN(C)CC4)[C@H](OC)C3)[C@H](C)[C@@H](O)CC1=O)[C@H](C)C[C@@H]2OC | < 4.00 | – | 79.8% | < 5.00 | 5.76 | 68% | 7.96 | inactive | Non-Toxic | inactive | < 4.00 | – | – | – | – | –
6 | CO[C@H]1C[C@@H](C)C/C(C)=C/[C@@H](CCCC(=O)N(CCO)CCO)C(=O)C[C@H](O)[C@@H](C)[C@@H](/C(C)=C/[C@@H]2CC[C@@H](O)[C@H](OC)C2)OC(=O)[C@@H]2CCCCN2C(=O)C(=O)[C@]2(O)O[C@H]1[C@@H](OC)C[C@H]2C | < 4.00 | 7.65 | 36.2% | < 5.00 | 6.00 | 35.7% | 7.87 | inactive | Non-Toxic | inactive | < 4.00 | – | – | – | – | –
7 | CO[C@H]1C[C@@H](C)C/C(C)=C/[C@@H](CCCC(=O)N2CCC(CO)CC2)C(=O)C[C@H](O)[C@@H](C)[C@@H](/C(C)=C/[C@@H]2CC[C@@H](OCCO)[C@H](OC)C2)OC(=O)[C@@H]2CCCCN2C(=O)C(=O)[C@]2(O)O[C@H]1[C@@H](OC)C[C@H]2C | < 4.00 | – | 81.7% | < 5.00 | – | 24% | 7.63 | inactive | Non-Toxic | inactive | < 4.00 | – | – | – | – | permeability (Aspergillus fumigatus [13]): 75%
8 | CC[C@@H]1/C=C(\C)C(O)[C@H](C)C[C@H](OC)[C@H]2O[C@@](O)(C(=O)C(=O)N3CCCC[C@H]3C(=O)O[C@H](/C(C)=C/[C@@H]3CC[C@@H](O)[C@H](OC)C3)[C@H](C)[C@@H](O)CC1=O)[C@H](C)C[C@@H]2OC (some centres undefined) | < 4.00 | 7.73 | 78.7% | < 5.00 | 5.88 | 83 - 86.8% | 8.17 | inactive | Non-Toxic | inactive | < 4.00 | 60.8 mL/min/kg | 787 ng·h/mL | 66.6 min | 2.58 L/kg | Activity (PBMC [18]): inactive; Tmax [11]: 15 min; Cmax [12]: 184 ng/mL; AUC(0-t) [14]: 208 ng·h/mL; Activity (Aspergillus fumigatus [19]): inactive
9 | CO[C@H]1C[C@@H](C)C/C(C)=C/[C@@H](CCCC(=O)N2CCN(C)CC2)C(=O)C[C@H](O)[C@@H](C)[C@@H](/C(C)=C/[C@@H]2CC[C@@H](OCCO)[C@H](OC)C2)OC(=O)[C@@H]2CCCCN2C(=O)C(=O)[C@]2(O)O[C@H]1[C@@H](OC)C[C@H]2C | < 4.00 | – | 67.8% | < 5.00 | – | 24 - 42% | 7.72 | inactive | Non-Toxic | inactive | < 4.00 | – | – | – | – | Activity (PBMC [18]): inactive; Activity (Aspergillus fumigatus [19]): Active
10 | CO[C@H]1C[C@@H](C)C/C(C)=C/[C@@H](/C=C/CCCC(=O)N2CCNCC2)C(=O)C[C@H](O)[C@@H](C)[C@@H](/C(C)=C/[C@@H]2CC[C@@H](O)[C@H](OC)C2)OC(=O)[C@@H]2CCCCN2C(=O)C(=O)[C@]2(O)O[C@H]1[C@@H](OC)C[C@H]2C | < 4.00 | – | 27.5% | < 5.00 | 5.74 | 36.5% | 7.90 | inactive | Non-Toxic | inactive | < 4.00 | – | – | – | – | –
